Results: article PMC4303209, “A novel phosphatidylinositol 3-kinase (PI3K) inhibitor directs a potent FOXO-dependent, p53-independent cell cycle arrest phenotype characterized by the differential induction of a subset of FOXO-regulated genes” (Breast Cancer Research : BCR, 2014)

System: MCF-7 breast cancer cells
Test: Microarray gene expression analysis (Agilent whole human genome 4 x 44K; compound vs DMSO, LIMMA log2 fold change)
Type: cell-based

## Cn1ncc2c(N3CCOCC3)nc(-c3cccc(O)c3)nc21 [ETP-45658]
Gene PDGFRB (5159), apoptosis genes
  PDGFRB log2FC: 0.022
Gene PEG3 (5178), apoptosis genes
  PEG3 log2FC: 0.028
Gene PEG10 (23089), apoptosis genes
  PEG10 log2FC: 0.064
Gene PF4 (5196), apoptosis genes
  PF4 log2FC: -0.049
Gene PHLDA3 (23612), apoptosis genes
  PHLDA3 log2FC: -0.007
Gene PIK3CG (5294), apoptosis genes
  PIK3CG log2FC: -0.029
Gene PKP1 (5317), apoptosis genes
  PKP1 log2FC: -0.004
Gene PLEKHG5 (57449), apoptosis genes
  PLEKHG5 log2FC: 0.079
Gene PLSCR3 (57048), apoptosis genes
  PLSCR3 log2FC: -0.068
Gene POLB (5423), apoptosis genes
  POLB log2FC: 0.060
Gene POLD4 (Gene 57804), cell cycle genes
  log2FC: -0.353
Gene POR (5447), apoptosis genes
  POR log2FC: 0.00332
Gene POU3F4 (5456), apoptosis genes
  POU3F4 log2FC: -0.034
Gene POU4F1, apoptosis genes
  POU4F1 log2FC: 0.016
Gene PPAT (Gene 10606), cell cycle genes
  log2FC: 0.187
Gene PPP1CA (Gene 5499), cell cycle genes
  log2FC: -0.227
Gene PPP2CA (Gene 5515), cell cycle genes
  log2FC: -0.322
Gene PPP2R1A (5518), apoptosis genes
  PPP2R1A log2FC: -0.055
Gene PRAMEF8 (391002), apoptosis genes
  PRAMEF8 log2FC: 0.019
Gene PRAMEF10 (343071), apoptosis genes
  PRAMEF10 log2FC: 0.00225
Gene PRKACB (Gene 5567), cell cycle genes
  log2FC: 0.355
Gene PRKAG3 (Gene 53632), cell cycle genes
  log2FC PRKAG3: -0.00189
Gene PRKRA (8575), apoptosis genes
  PRKRA log2FC: 0.029
Gene PRLR (5618), apoptosis genes
  PRLR log2FC: -0.012
Gene PROC (5624), apoptosis genes
  PROC log2FC: 0.006
Gene PROP1 (5626), apoptosis genes
  PROP1 log2FC: -0.275
Gene PSMA1 (5682), apoptosis genes
  PSMA1 log2FC: 0.045
Gene PSMA2 (Gene 5683), cell cycle genes
  log2FC: 0.460
Gene PSMA3 (Gene 5684), cell cycle genes
  log2FC: 0.270
Gene PSMA5 (5686), apoptosis genes
  PSMA5 log2FC: -0.038
Gene PSMA5 (Gene 5686), cell cycle genes
  log2FC PSMA5: -0.038
Gene PSMA7 (5688), apoptosis genes
  PSMA7 log2FC: 0.359
Gene PSMA7 (Gene 5688), cell cycle genes
  log2FC PSMA7: 0.359
Gene PSMB3 (5691), apoptosis genes
  PSMB3 log2FC: -0.030
Gene PSMB4 (Gene 5692), cell cycle genes
  log2FC: 0.132
Gene PSMB7 (5695), apoptosis genes
  PSMB7 log2FC: -0.00851
Gene PSMB7 (Gene 5695), cell cycle genes
  log2FC PSMB7: -0.00851
Gene PSMB8 (5696), apoptosis genes
  PSMB8 log2FC: -0.045
Gene PSMC4 (5704), apoptosis genes
  PSMC4 log2FC: -0.021
Gene PSMC4 (Gene 5704), cell cycle genes
  log2FC PSMC4: -0.021
Gene PSMD2 (5708), apoptosis genes
  PSMD2 log2FC: 0.090
Gene PSMD13 (5719), apoptosis genes
  PSMD13 log2FC: -0.031
Gene PSMD14 (Gene 10213), cell cycle genes
  log2FC: 0.447
Gene PSME1 (Gene 5720), cell cycle genes
  log2FC: 0.322
Gene PSME2 (5721), apoptosis genes
  PSME2 log2FC: 0.039
Gene PTTG1 (Gene 9232), cell cycle genes
  log2FC: -0.269
Gene PYCARD (29108), apoptosis genes
  PYCARD log2FC: -0.070
Gene RAB11FIP3 (Gene 9727), cell cycle genes
  log2FC: -0.225
Gene RAD51C (Gene 5889), cell cycle genes
  log2FC RAD51C: -0.019
Gene RAE1 (Gene 8480), cell cycle genes
  log2FC RAE1: 0.005
Gene RAF1 (5894), apoptosis genes
  RAF1 log2FC: -0.038
Gene RALA (Gene 5898), cell cycle genes
  log2FC: 0.348
Gene RALB (Gene 5899), cell cycle genes
  log2FC: 0.324
Gene RAMP2 (10266), apoptosis genes
  RAMP2 log2FC: -0.017
Gene RANGAP1 (Gene 5905), cell cycle genes
  log2FC RANGAP1: -0.026
Gene RAPSN (5913), apoptosis genes
  RAPSN log2FC: -0.022
Gene RARB (5915), apoptosis genes
  RARB log2FC: 0.00564
Gene RASSF6 (166824), apoptosis genes
  RASSF6 log2FC: 0.042
Gene RBBP8 (Gene 5932), cell cycle genes
  log2FC: 0.568
Gene RBL1 (Gene 5933), cell cycle genes
  log2FC: 0.284
Gene RBM7 (Gene 10179), cell cycle genes
  log2FC: 0.349
Gene RCC1 (Gene 1104), cell cycle genes
  log2FC: -0.365
Gene REEP4 (Gene 80346), cell cycle genes
  log2FC REEP4: -0.031
Gene RET (5979), apoptosis genes
  RET log2FC: -0.021
Gene RHOT2 (89941), apoptosis genes
  RHOT2 log2FC: -0.087
Gene RPA2 (Gene 6118), cell cycle genes
  log2FC RPA2: 0.00567
Gene RPS3 (6188), apoptosis genes
  RPS3 log2FC: 0.020
Gene RPS6KA2 (6196), apoptosis genes
  RPS6KA2 log2FC: 0.035
Gene RPS6KB1 (Gene 6198), cell cycle genes
  log2FC: 0.426
Gene RRN3 (653390), apoptosis genes
  RRN3 log2FC: -0.022
Gene RSPO1 (Gene 284654), cell cycle genes
  log2FC: -0.127
Gene RYR2 (6262), apoptosis genes
  RYR2 log2FC: -0.020
Gene S100A9 (6280), apoptosis genes
  S100A9 log2FC: 0.039
Gene S100A14 (57402), apoptosis genes
  S100A14 log2FC: 0.034
Gene SART1 (Gene 9092), cell cycle genes
  log2FC: -0.304
Gene SCIN (85477), apoptosis genes
  SCIN log2FC: -0.012
Gene SEH1L (Gene 81929), cell cycle genes
  log2FC: -0.373
Gene SEMA5A (9037), apoptosis genes
  SEMA5A log2FC: -0.032
Gene SENP2 (Gene 59343), cell cycle genes
  log2FC SENP2: -0.00743
Gene SERINC3 (10955), apoptosis genes
  SERINC3 log2FC: 0.046
Gene SERPINE1 (5054), apoptosis genes
  SERPINE1 log2FC: -0.036
Gene SESN1 (Gene 27244), cell cycle genes
  log2FC: 0.237
Gene SHF (90525), apoptosis genes
  SHF log2FC: 0.026
Gene SKIL (6498), apoptosis genes
  SKIL log2FC: 0.046
Gene SKIL (Gene 6498), cell cycle genes
  log2FC SKIL: 0.046
Gene SLBP (Gene 7884), cell cycle genes
  log2FC: 0.333
Gene SLC25A6 (293), apoptosis genes
  SLC25A6 log2FC: 0.025
Gene SLC26A8 (Gene 116369), cell cycle genes
  log2FC SLC26A8: -0.003
Gene SLC40A1 (30061), apoptosis genes
  SLC40A1 log2FC: -0.005
Gene SMAD1 (4086), apoptosis genes
  SMAD1 log2FC: -0.074
Gene SMNDC1 (10285), apoptosis genes
  SMNDC1 log2FC: -0.102
Gene SOD1 (6647), apoptosis genes
  SOD1 log2FC: 0.073
Gene SOS1 (6654), apoptosis genes
  SOS1 log2FC: 0.035
Gene SOX8 (30812), apoptosis genes
  SOX8 log2FC: -0.391
Gene SPO11 (Gene 23626), cell cycle genes
  log2FC SPO11: 0.008
Gene SPTAN1 (6709), apoptosis genes
  SPTAN1 log2FC: 0.094
Gene SRC (Gene 6714), cell cycle genes
  log2FC: -0.316
Gene STAG1 (Gene 10274), cell cycle genes
  log2FC: 0.343
Gene STK3 (6788), apoptosis genes
  STK3 log2FC: 0.083
Gene SULF1 (23213), apoptosis genes
  SULF1 log2FC: -0.096
Gene SUPT5H (Gene 6829), cell cycle genes
  log2FC: -0.331
Gene SUV39H2 (Gene 79723), cell cycle genes
  log2FC: -0.388
Gene SYCP2 (10388), apoptosis genes
  SYCP2 log2FC: 0.016
Gene SYCP2 (Gene 10388), cell cycle genes
  log2FC SYCP2: 0.016
Gene SYCP3 (Gene 50511), cell cycle genes
  log2FC SYCP3: 0.00367
Gene TAF2 (Gene 6873), cell cycle genes
  log2FC: 0.361
Gene TAF6 (Gene 6878), cell cycle genes
  log2FC TAF6: 0.055
Gene TAOK2 (Gene 9344), cell cycle genes
  log2FC: -0.736
Gene TEK (7010), apoptosis genes
  TEK log2FC: -0.008
Gene TEX14 (Gene 56155), cell cycle genes
  log2FC: 0.240
Gene TEX15 (Gene 56154), cell cycle genes
  log2FC: 0.238
Gene TFAP2D (83741), apoptosis genes
  TFAP2D log2FC: -0.029
Gene TGFA (Gene 7039), cell cycle genes
  log2FC: -0.305
Gene TGFB2 (7042), apoptosis genes
  TGFB2 log2FC: -0.011
Gene TGFB2 (Gene 7042), cell cycle genes
  log2FC TGFB2: -0.011
Gene THEM4 (117145), apoptosis genes
  THEM4 log2FC: -0.054
Gene THOC5 (Gene 8563), cell cycle genes
  log2FC THOC5: 0.010
Gene TMBIM4 (51643), apoptosis genes
  TMBIM4 log2FC: 0.025
Gene TMEM67 (Gene 91147), cell cycle genes
  log2FC: 0.184
Gene TMEM102 (284114), apoptosis genes
  TMEM102 log2FC: -0.101
Gene TNFRSF1B (7133), apoptosis genes
  TNFRSF1B log2FC: -0.022
Gene TNFRSF8 (943), apoptosis genes
  TNFRSF8 log2FC: 0.055
Gene TNFRSF10C (8794), apoptosis genes
  TNFRSF10C log2FC: 0.00147
Gene TNFSF8 (944), apoptosis genes
  TNFSF8 log2FC: -0.043
Gene TNFSF9 (8744), apoptosis genes
  TNFSF9 log2FC: 0.017
Gene TNFSF10 (8743), apoptosis genes
  TNFSF10 log2FC: -0.021
Gene TNFSF12 (8742), apoptosis genes
  TNFSF12 log2FC: 0.112
Gene TNFSF14 (8740), apoptosis genes
  TNFSF14 log2FC: 0.017
Gene TNFSF15 (9966), apoptosis genes
  TNFSF15 log2FC: 0.027
Gene TNFSF18 (8995), apoptosis genes
  TNFSF18 log2FC: 0.00185
Gene TP73 (Gene 7161), cell cycle genes
  log2FC: -0.503
Gene TPD52L1 (Gene 7164), cell cycle genes
  log2FC: 0.379
Gene TPX2 (22974), apoptosis genes
  TPX2 log2FC: 0.049
Gene TRAF2 (7186), apoptosis genes
  TRAF2 log2FC: -0.056
Gene TRAF3IP2 (10758), apoptosis genes
  TRAF3IP2 log2FC: -0.070
Gene TRIP13 (Gene 9319), cell cycle genes
  log2FC TRIP13: 0.007
Gene TUBGCP6 (Gene 85378), cell cycle genes
  log2FC: -0.470
Gene TXNDC5 (81567), apoptosis genes
  TXNDC5 log2FC: 0.070
Gene TYMS (Gene 7298), cell cycle genes
  log2FC TYMS: -0.0037
Gene UBD (10537), apoptosis genes
  UBD log2FC: -0.00756
Gene UBE2V2 (7336), apoptosis genes
  UBE2V2 log2FC: -0.109
Gene UNC13B (10497), apoptosis genes
  UNC13B log2FC: 0.009
Gene VDAC2 (7417), apoptosis genes
  VDAC2 log2FC: 0.033
Gene VIM (7431), apoptosis genes
  VIM log2FC: 0.051
Gene VIP (7432), apoptosis genes
  VIP log2FC: -0.146
Gene VNN1 (8876), apoptosis genes
  VNN1 log2FC: 0.157
Gene VRK1 (Gene 7443), cell cycle genes
  log2FC: 0.426
Gene WNK3 (65267), apoptosis genes
  WNK3 log2FC: 0.012
Gene WTAP (Gene 9589), cell cycle genes
  log2FC: -0.387
Gene YY1AP1 (Gene 55249), cell cycle genes
  log2FC: 0.220
Gene ZBTB16 (7704), apoptosis genes
  ZBTB16 log2FC: 0.144
Gene ZC3H12D (Gene 85313), cell cycle genes
  log2FC ZC3H12D: -0.006
Gene ZC3HC1 (Gene 51530), cell cycle genes
  log2FC: 0.230
Gene ZNF205 (7755), apoptosis genes
  ZNF205 log2FC: -0.229
Gene ZNF443 (10224), apoptosis genes
  ZNF443 log2FC: -0.028
Gene ZNF503 (Gene 84858), cell cycle genes
  log2FC: -0.229
Gene ZNF622 (90441), apoptosis genes
  ZNF622 log2FC: 0.041
